Three compounds from patent publication US11208412B2 (DAEGU-GYEONGBUK MEDICAL INNOVATION FOUNDATION, priority 2017, dated 2021) can be followed below.

The target in assay [1] is T1, kinases of the scanMAX Kinase assay panel (Homo sapiens, UniProt P09619).
T1 construct: purchased DiscoverX Co. (contract measurement) scanMAX Kinase assay panel
Put plainly: Kinase selectivity, DiscoverX scanMAX Kinase assay panel (% control). The assay is classed as binding. The following applies: PDGFRB; 1 uM. The essentials:
(§1)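 Binding-panel profiling at one concentration, 1 uM in DMSO; values are % of DMSO control after subtracting the positive-control floor. Less than 35% means activity on that kinase.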

The target in assay [2] is T2, kinases of the scanMAX Kinase assay panel (Homo sapiens, UniProt P11802).
T2 construct: purchased DiscoverX Co. (contract measurement) scanMAX Kinase assay panel
T2 sequence (P11802 whole entry): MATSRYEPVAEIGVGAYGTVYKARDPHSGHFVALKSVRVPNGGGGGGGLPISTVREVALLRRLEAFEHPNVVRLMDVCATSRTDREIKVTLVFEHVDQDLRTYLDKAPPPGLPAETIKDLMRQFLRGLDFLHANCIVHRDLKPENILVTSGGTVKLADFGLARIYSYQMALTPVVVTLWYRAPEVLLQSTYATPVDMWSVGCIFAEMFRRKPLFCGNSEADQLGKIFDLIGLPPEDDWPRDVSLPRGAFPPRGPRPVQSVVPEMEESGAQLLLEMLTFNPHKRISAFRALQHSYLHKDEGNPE
Described as above. It is filed as binding. The following applies: 1 uM. The method, boiled down: as §1

In assay [3] the target is T3, kinases of the scanMAX Kinase assay panel (Homo sapiens, UniProt Q15759).
T3 construct: purchased DiscoverX Co. (contract measurement) scanMAX Kinase assay panel
T3 sequence (Q15759 whole entry): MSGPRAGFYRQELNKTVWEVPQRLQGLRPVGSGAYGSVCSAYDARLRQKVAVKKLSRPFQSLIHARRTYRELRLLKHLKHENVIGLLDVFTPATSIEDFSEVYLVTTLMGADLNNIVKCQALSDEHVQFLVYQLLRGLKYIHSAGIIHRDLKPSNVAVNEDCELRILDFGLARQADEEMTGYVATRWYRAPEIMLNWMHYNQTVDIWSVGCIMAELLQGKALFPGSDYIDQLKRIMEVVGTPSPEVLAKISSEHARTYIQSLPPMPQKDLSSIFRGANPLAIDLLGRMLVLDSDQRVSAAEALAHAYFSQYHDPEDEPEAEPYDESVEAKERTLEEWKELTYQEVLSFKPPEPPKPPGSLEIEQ
The assay is described as above. The assay is classed as binding. The following applies: p38-beta; 1 uM. The method, boiled down:
as §1

For assay [4], the target named is T4, kinases of the scanMAX Kinase assay panel (Homo sapiens, UniProt Q8TD08).
T4 construct: purchased DiscoverX Co. (contract measurement) scanMAX Kinase assay panel
T4 sequence (Q8TD08 1-544): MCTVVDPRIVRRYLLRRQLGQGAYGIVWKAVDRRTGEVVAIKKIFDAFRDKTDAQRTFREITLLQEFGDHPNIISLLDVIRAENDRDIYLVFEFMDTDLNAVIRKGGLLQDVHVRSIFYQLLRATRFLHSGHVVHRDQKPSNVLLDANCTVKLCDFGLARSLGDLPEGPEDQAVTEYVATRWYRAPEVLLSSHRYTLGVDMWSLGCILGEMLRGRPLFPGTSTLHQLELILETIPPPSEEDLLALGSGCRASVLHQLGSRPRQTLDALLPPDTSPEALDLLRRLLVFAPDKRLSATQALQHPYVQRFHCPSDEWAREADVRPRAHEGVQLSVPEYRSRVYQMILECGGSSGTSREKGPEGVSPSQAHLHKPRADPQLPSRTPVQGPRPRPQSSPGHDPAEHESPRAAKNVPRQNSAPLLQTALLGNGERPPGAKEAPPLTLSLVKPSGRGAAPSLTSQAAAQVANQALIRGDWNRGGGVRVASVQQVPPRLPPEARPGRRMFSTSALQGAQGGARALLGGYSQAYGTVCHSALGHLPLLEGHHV
The assay is described as above. Conditions: ERK8; 1 uM. The assay is classed as binding. The method, boiled down: as §1

In assay [5] the target is T5, kinases of the scanMAX Kinase assay panel (Homo sapiens, UniProt Q16566).
T5 construct: purchased DiscoverX Co. (contract measurement) scanMAX Kinase assay panel
T5 sequence (Q16566 1-473): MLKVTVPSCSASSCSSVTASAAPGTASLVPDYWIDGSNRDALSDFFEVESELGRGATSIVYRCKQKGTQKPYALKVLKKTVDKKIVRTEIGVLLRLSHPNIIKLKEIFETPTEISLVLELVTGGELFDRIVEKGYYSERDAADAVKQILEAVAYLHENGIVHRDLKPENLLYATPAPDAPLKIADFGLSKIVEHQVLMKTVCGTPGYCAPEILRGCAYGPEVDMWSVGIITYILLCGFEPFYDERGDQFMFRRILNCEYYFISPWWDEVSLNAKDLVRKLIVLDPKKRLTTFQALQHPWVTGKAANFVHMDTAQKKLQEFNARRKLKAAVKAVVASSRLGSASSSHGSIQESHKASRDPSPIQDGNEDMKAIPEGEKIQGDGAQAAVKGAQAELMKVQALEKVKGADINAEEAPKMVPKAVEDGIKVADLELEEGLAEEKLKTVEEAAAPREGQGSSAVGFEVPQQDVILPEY
Described as above. It is filed as binding. The following applies: CAMK4; 1 uM. The method, boiled down:
as §1

Assay [6] has as its target T6, kinases of the scanMAX Kinase assay panel (Homo sapiens, UniProt P0C264).
T6 construct: purchased DiscoverX Co. (contract measurement) scanMAX Kinase assay panel
T6 sequence (P0C264 1-359): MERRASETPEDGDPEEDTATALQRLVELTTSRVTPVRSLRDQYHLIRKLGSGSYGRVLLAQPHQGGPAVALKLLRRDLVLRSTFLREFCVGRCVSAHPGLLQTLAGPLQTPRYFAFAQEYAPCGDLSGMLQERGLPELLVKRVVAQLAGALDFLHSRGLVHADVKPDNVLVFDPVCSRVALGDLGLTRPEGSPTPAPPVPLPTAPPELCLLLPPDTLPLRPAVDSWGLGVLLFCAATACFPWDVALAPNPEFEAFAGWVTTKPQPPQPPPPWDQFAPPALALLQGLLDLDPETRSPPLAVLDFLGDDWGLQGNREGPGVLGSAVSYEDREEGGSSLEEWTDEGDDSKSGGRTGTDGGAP
The description is as above. The assay is classed as binding. Conditions: kinase SgK110; 1 uM in DMSO. The essentials:
as §1

In assay [7] the target is T7, kinases of the scanMAX Kinase assay panel (Homo sapiens, UniProt O15264).
T7 construct: purchased DiscoverX Co. (contract measurement) scanMAX Kinase assay panel
T7 sequence (O15264 1-365): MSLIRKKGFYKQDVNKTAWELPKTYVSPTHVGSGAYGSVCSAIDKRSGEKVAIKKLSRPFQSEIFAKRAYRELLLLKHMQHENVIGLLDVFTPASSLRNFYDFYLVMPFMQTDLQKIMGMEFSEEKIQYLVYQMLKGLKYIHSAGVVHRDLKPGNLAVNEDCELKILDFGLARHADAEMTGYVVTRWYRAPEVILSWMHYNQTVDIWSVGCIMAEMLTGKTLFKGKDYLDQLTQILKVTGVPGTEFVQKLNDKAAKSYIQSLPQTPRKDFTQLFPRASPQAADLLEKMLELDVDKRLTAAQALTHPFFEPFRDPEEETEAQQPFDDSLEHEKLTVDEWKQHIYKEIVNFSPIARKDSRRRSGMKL
Described as above. The following applies: p38-delta; 1 uM. The assay is classed as binding. The essentials: as §1

For assay [8], the target named is T8, kinases of the scanMAX Kinase assay panel (Homo sapiens, UniProt O15075).
T8 construct: purchased DiscoverX Co. (contract measurement) scanMAX Kinase assay panel
T8 sequence (O15075 whole entry): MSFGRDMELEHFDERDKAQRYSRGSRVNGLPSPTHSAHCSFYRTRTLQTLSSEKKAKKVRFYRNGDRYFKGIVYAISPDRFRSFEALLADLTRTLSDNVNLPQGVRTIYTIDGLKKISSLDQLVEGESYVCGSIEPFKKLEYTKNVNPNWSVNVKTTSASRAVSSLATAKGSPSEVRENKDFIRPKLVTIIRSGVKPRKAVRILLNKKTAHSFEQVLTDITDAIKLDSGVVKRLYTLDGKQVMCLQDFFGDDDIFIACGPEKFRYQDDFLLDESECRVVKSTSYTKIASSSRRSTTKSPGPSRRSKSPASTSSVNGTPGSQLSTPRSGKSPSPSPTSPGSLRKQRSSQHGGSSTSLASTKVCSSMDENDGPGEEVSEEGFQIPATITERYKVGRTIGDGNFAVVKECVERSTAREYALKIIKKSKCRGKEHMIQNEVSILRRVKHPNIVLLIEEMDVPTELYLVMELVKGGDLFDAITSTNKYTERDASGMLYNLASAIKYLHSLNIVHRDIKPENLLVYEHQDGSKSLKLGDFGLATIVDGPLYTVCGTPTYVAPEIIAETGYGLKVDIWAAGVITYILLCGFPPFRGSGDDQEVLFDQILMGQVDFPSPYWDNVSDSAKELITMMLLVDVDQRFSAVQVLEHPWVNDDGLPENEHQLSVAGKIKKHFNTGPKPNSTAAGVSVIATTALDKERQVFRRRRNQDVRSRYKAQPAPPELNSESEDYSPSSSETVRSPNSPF
The assay is described as above. The assay is classed as binding. The following applies: DCAMKL1; 1 uM. The method, boiled down: as §1

Assay [9] concerns the target T9, kinases of the scanMAX Kinase assay panel (Homo sapiens, UniProt Q9H4A3).
T9 construct: purchased DiscoverX Co. (contract measurement) scanMAX Kinase assay panel
The description is as above. It is filed as binding. Conditions: kinase WNK1; 1 uM in DMSO. The method, boiled down:
as §1

The target of assay [10] is T10, recombinant LRRK2 kinase (Homo sapiens, UniProt Q5S007).
T10 construct: purchased Signal Chem, Richmond, BC, Canada
T10 sequence (Q5S007 whole entry): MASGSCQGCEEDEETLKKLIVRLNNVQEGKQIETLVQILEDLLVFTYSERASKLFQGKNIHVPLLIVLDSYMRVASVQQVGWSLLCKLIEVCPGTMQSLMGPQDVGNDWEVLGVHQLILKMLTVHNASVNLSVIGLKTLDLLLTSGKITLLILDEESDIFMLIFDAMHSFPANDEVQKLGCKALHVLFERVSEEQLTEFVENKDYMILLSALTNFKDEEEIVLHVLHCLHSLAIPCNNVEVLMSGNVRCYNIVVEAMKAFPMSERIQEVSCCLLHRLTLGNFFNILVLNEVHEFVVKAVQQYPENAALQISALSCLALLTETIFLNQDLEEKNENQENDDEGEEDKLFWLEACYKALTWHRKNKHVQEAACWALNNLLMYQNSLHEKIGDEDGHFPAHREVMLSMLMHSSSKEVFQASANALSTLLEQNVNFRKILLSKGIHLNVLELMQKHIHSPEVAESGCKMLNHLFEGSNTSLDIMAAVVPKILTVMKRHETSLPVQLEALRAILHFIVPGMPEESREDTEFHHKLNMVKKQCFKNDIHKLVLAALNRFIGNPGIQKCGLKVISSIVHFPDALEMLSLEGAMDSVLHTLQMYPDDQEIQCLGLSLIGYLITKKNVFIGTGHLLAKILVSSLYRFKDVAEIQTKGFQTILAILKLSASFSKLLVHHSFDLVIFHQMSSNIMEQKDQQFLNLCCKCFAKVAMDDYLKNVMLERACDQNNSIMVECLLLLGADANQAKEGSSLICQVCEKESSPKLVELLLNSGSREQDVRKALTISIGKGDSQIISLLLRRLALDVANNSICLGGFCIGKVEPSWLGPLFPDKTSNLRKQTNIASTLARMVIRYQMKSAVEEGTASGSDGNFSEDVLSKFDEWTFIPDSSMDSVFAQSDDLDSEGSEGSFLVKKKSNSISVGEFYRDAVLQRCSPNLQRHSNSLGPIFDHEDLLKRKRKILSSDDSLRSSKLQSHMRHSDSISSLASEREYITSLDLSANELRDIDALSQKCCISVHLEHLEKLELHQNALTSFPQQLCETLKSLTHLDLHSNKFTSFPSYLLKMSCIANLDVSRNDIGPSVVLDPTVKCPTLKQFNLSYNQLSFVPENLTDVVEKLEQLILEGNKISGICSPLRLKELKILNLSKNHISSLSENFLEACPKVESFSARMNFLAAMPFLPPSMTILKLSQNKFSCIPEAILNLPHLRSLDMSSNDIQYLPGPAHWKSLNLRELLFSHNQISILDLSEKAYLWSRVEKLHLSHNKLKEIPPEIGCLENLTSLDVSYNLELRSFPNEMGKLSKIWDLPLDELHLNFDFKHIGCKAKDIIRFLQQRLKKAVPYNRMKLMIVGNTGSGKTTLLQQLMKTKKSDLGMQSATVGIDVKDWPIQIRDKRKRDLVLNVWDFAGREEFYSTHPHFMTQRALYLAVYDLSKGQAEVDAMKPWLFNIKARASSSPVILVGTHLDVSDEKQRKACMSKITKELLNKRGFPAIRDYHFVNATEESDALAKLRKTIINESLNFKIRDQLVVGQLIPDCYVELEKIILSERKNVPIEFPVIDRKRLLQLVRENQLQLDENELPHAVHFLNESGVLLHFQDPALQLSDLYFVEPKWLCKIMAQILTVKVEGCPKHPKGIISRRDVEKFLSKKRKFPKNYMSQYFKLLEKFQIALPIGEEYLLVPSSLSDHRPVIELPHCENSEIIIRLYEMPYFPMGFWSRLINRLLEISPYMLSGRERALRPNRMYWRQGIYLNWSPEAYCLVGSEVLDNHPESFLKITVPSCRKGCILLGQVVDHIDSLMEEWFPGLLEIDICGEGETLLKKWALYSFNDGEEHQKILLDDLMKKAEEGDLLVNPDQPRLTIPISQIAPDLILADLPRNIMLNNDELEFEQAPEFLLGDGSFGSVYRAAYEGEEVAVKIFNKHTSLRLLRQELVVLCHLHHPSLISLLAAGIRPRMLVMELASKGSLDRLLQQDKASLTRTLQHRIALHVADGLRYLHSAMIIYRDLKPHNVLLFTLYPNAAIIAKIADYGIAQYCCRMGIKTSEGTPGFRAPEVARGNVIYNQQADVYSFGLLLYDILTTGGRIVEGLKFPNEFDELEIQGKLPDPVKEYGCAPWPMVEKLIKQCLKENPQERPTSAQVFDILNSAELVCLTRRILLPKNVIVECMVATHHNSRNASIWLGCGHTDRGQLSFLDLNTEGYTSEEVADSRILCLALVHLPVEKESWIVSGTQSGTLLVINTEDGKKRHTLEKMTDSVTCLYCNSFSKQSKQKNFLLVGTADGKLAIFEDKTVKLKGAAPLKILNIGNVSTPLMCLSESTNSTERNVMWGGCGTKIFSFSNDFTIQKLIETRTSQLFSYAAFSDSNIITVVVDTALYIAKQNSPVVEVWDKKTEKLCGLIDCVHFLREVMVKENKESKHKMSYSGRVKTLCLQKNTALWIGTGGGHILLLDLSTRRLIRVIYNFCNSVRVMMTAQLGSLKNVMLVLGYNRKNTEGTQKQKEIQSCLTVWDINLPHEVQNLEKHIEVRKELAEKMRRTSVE
Put plainly: LRRK2 kinase inhibition (Kinase-Glo luminescence). The following applies: IC50 grade; 25 μmol/L ATP, LRRKtide, 30° C. 2 hours; read-out: Enzyme activity LRRK2. The assay is classed as biochemical. The procedure:
Upon completion of the reaction, an equal amount of Kinase-Glo (Promega, Madison, Wis.) solution was added thereto, followed by reaction for 40 minutes. A detection solution was added thereto, followed by further reaction at room temperature for 30 minutes. Then, IC50 of kinase was calculated by measuring the amount of luciferase using a microplate ELISA reader (Bio-Tek).
Background: In Kinase-Glo more light means more ATP remaining.

T1 sequence (P09619 33-1106): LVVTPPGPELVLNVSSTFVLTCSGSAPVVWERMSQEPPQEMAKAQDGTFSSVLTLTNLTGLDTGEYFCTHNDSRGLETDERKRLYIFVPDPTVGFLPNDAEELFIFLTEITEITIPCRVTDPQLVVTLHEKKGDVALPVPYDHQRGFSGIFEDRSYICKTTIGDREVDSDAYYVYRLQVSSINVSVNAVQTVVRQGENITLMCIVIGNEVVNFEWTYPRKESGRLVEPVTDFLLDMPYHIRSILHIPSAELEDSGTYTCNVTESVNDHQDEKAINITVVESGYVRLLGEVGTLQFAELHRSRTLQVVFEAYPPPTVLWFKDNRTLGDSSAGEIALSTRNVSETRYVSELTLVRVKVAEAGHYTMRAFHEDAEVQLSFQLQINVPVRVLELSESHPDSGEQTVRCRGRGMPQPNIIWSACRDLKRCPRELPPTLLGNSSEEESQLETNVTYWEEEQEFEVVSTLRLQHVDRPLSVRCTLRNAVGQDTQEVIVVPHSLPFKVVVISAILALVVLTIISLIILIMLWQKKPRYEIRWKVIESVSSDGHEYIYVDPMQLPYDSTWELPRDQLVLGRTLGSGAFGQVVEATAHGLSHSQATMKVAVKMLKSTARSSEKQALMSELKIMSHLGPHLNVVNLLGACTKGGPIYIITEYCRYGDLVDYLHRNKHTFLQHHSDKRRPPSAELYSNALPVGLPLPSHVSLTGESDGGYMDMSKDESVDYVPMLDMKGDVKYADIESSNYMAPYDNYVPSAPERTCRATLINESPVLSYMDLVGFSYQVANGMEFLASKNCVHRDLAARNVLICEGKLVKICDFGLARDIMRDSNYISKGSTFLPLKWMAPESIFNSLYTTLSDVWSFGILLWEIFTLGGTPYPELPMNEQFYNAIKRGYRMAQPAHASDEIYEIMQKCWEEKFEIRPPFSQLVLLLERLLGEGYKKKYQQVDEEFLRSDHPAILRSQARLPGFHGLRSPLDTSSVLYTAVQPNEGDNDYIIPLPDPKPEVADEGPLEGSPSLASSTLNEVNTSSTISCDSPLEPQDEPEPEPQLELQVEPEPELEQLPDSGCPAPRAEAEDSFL

In the case of `CC1(Nc2nc(Nc3cnn([C@H]4CCN(C5COC5)C[C@@H]4F)c3Cl)nc3[nH]cc(C#N)c23)CC1` [Example 52, 2-((5-chloro-1-((3S,4S)-3-fluoro-1-(oxetane-3-yl)piperidine-4-yl)-1H-pyrazole-4-yl)amino)((1-methylcyclopropyl)amino)-7H-pyrrolo[2,3-d]pyrimidine-5-carbonitrile], the remaining binding at 1 µM in [1] came out at 0.35%; in assay [2] (CDK4-cyclinD1), 59%; in [2] (CDK4-cyclinD3), 100%; in assay [2] (CDK4), 100%; in [3] it was 92%; in [4], 62%. The remaining binding at 1 µM in [5] stood at 55%; in assay [6] it was 32%; in [7], 76%; in assay [8], 34%; in [9], 99%. In assay [10], the IC50 is less than 10 nM.
As for `CCNc1nc(Nc2ccc(C(=O)N3CCC(N4CCOCC4)CC3)cc2OC)nc2[nH]cc(C(F)(F)F)c12` [Example 104, (4-((4-(ethylamino)-5-(trifluoromethyl)-7H-pyrrolo[2,3-d]pyrimidine-2-yl)amino)-3-methoxyphenyl)(4-morpholinopiperidine-1-yl)methanone], the remaining binding at 1 µM amounted to 60% in assay [1]; 55% in assay [2] (CDK4-cyclinD1); 53% in assay [2] (CDK4-cyclinD3); 100% in assay [2] (CDK4); 100% in assay [3]; 100% in [4]. The remaining binding at 1 µM in assay [5] was determined as 27%; in [6], 100%; in [7], 95%; in assay [8], 49%; in assay [9] it was 100%. Moreover, in assay [10], the IC50 is less than 10 nM.
For the compound `CNc1nc(Nc2ccc(C(=O)N3CCOCC3)cc2OC)nc2[nH]cc(C#N)c12` [Example 1, 2-((2-methoxy-4-(morpholine-4-carbonyl)phenyl)amino)-4-(methylamino)-7H-pyrrolo[2,3-d]pyrimidine-5-carbonitrile], the remaining binding at 1 µM in assay [1] was determined as 84%; in assay [2] (CDK4-cyclinD1) it was 74%; in assay [2] (CDK4-cyclinD3), 96%; in assay [2] (CDK4), 61%; in assay [3] it was 98%; in assay [4], 100%. The remaining binding at 1 µM in assay [5] is 99%; in assay [6], 100%; in assay [7] it was 100%; in [8], 57%; in [9], 70%. The IC50 in [10] is less than 10 nM.
